Results as given in patent US7628765B2, “Increasing retrievable cells from a breast duct” (Cytyc Corporation, priority 2001, dated 2009).

Test system: breast ducts of live rabbits
Assay: Ductal fluid collection after intraductal injection of mannitol solution in live rabbit
Type: in vivo, New Zealand rabbit
Conditions: for recovery: out-flow liquid checked about an hour later
Protocol: The objective of these experiments was to test the effects of the introduction of a solution containing mannitol on the secretion of fluid from the breast ducts of live rabbits. New Zealand rabbit #3242, female, from Kraelik Farm in CA weighing 4.1 kg was used. The rabbit was anesthetized by injection of 200 mg of ketamine and 40 mg of Zylazine. A second injection of 100 mg of ketamine and 20 mg of xylazine was made 2 hours later to maintain the rabbit in a deep plane of anesthesia. The thorax and abdomen of the rabbit was shaved to expose the breasts and nipples.
A single lumen blue color catheter (O.D. 0.23″ ID 0.017; O.D. at the tip 0.011″-0.012″) was inserted into a duct in each nipple. Three nipples were tested, and 2 ducts per nipple were accessed with a catheter. The nipples were identified A, B, and C.
A duct on nipple A was injected with 0.20 ml of a 12.5% solution of D-Mannitol in H2O (available from Sigma Chemicals, St. Louis, Mo. cat# M-9546 lot 6710402: C6H14O6 FW 182.2) with a single catheter. The control duct on nipple A was injected with 0.20 ml of phosphate buffered saline (PBS). A microfuge tube was attached to the end of each catheter to collect out flow liquid. Ten minutes later 0.2 ml of a 12.5% solution of D-Mannitol in H2O was injected into the first duct and the second duct was injected with 0.20 ml of phosphate buffered saline, for a total volume injected in each duct of 0.40 ml.
A duct on nipple B was injected with 0.5 ml of a 12.5% solution of D-Mannitol in H2O with a single catheter. The control duct on nipple B was injected with 0.50 ml of phosphate buffered saline (PBS). A microfuge tube was attached to the end of each catheter to collect out-flow liquid.
A duct on nipple C was injected with 0.7 ml of a 12.5% solution of D-Mannitol in H2O with a single catheter. The control duct on nipple C was injected with 0.70 ml of phosphate buffered saline (PBS). A microfuge tube was attached to the end of each catheter to collect out flow liquid.
About an hour after the fluid containing mannitol or PBS was injected into the ducts via the catheters, the microfuge tubes were checked for whether any fluid was returned.

OC[C@@H](O)[C@@H](O)[C@H](O)[C@H](O)CO [mannitol, D-Mannitol]
ducts from which fluid can be collected (ducts injected with 12.5% mannitol solution, 0.4-0.7 ml, PBS control 1 out of 3): three out of three
recovery (nipple A, duct A1, 0.4 ml total of 12.5% solution (2 x 0.2 ml, 10 min apart) injected intraductally): 310 ul liquid
recovery (nipple B, duct B1, 0.5 ml of 12.5% solution injected intraductally): 490 ul liquid
recovery (nipple C, duct C1, 0.7 ml of 12.5% solution injected intraductally): 280 ul liquid
